The source of these data is US20150306232A1, “HYDROGELATORS COMPRISING D-AMINO ACIDS” (BRANDEIS UNIVERSITY, priority 2012, published 2015).

Residues, ends and D or L forms follow the SMILES beside them. *: point of attachment. Naproxen = COc1ccc2cc([C@H](C)C(=O)*)ccc2c1

One data set addresses COX-2 (Homo sapiens, UniProt P35354). As to conditions: read-out: reported IC50 of naproxen to COX-2; literature; cited from earlier work.
A further data set concerns ALP. As to the kind of experiment: enzymatic dephosphorylation followed by 31P NMR. In kind it is biochemical. The conditions noted are these: 1.0 wt %, 0.02 U/mL ALP, pH 7.6, 25° C. Here is the method: To evaluate the rate of enzymatic hydrogelation process, we used ^31P NMR and rheology to study the transformation of the precursors 11a and 11b upon the treatment of ALP (FIG. 26). We first dissolved 10 mg of 11a and 11b into 1.0 mL of water at pH 7.6, respectively, to afford clear solutions with concentrations of 1.0 wt %. Once adding 0.02 U/mL of alkaline phosphates, we immediately monitored the solutions of 11a and 11b by ^31P NMR and oscillatory rheology at 25° C. The ^31P NMR spectra at 3 min, 1 h, 2 h, 4 h, 6 h, 8 h, 10 h, 12 h, 14 h, 18 h, 24 h, and 48 h indicate that the phosphate groups on the L-tyrosine of 11a and D-tyrosine 11b (δ=−2.7) become free phosphates (δ=0.0) at almost same rate, and dephosphorylation finishes after 48 hours. […] FIGS. 26C and 26D display the time dependent rheology studies of 11a and 11b. At the beginning, values of G″ are higher than the values of G′ for the solutions of 11a and 11b, indicating both of them are fluids. However, as 11a and 11b slowly turn into hydrogelators 12a and 12b by enzymatic dephosphorylation, the solutions start to form solid-like hydrogels with values of G′ become higher than those of G″. The gelation points for 12a and 12b, at where G′s intersect with G″s, are both achieved around 5 hours after the addition of enzyme. […]

Data set [1] is described as follows: enzymatic hydrogelation with ALP. It counts as physicochemical. The conditions noted are these: 1.0 U/mL ALP, pH 7.6, 0.4-1.0 wt %. Here is the method: To investigate the enzymatic hydrogelation of the D-peptidic precursor 11b, we prepared a series of hydrogels formed by using ALP to treat 11b at different concentrations. After dissolving 1.0, 2.0, 3.0, 4.0, and 5.0 mg of 11b in 0.5 mL of water (pH 7.6), respectively, we obtained clear solutions of 11b with different concentrations. The treatment of the solutions of 11b with ALP (1.0 U/mL) afforded the molecules of hydrogelator 12b, which are less soluble than 11b and thus self-assemble in water to form hydrogels when the concentrations of 12b are sufficient.
All the compounds were dissolved in de-ionized water. We then adjusted pH of the solutions carefully adding 1 M of NaOH and 1 M of HCl and measured the values by pH paper (pH 6.0-8.0). After prepared clear weakly basic solutions (pH 7.6 or 7.4), we then formed the hydrogels by adding enzymes (alkaline phosphatase).

For data set [2], the system named is HeLa cells. Put plainly: live cell imaging of intracellular self-assembly. In kind it is cell-based. The conditions noted are these: 500 μM. Here is the method: We seeded 2×10^5 of HeLa cells in Glass Chamber (Thermo Scientific Nunc Lab-Tek, 2-well) with MEM medium (2 mL) that was supplemented with 10% FBS, 100 U/mL penicillin and 100 mg mL 21 streptomycin for 4 h to allow the cell attachment. In order to perform the PTP1B Inhibition assay, we then replaced the culture medium in both wells and re-incubated the cells for 1 h, for which one-half of the wells was incubated in the medium containing 25 μM CinnGEL 2Me (novel inhibitor of PTP1B, prepared by reconstitution in DMSO), other well as a control was in the culture medium plus the same volume of DMSO. Ishino, Y.; et al. Mol. Vis. 2008, 14, 61. After that, we replaced the medium and washed the HeLa cells with PBS buffer for three times. Then we fixed the cell containing glass chamber on the confocal microscope stage, and replaced the PBS buffer with 1 mL solution of our fluorescent hydrogelators (500 μM, dissolved in PBS buffer) for each well. The sample we added into the PTP1B inhibition well also contained 25 μM of CinnGEL 2Me. Thereafter fluorescent images were captured immediately in the xyt mode with a delay of 11.64 s between frames.

A further data set has as its target T1, COX-1 (ovine) enzyme (Ovis aries, UniProt P05979).
T1 construct: purchased Cayman Chemical 700100
T1 sequence (P05979 25-600): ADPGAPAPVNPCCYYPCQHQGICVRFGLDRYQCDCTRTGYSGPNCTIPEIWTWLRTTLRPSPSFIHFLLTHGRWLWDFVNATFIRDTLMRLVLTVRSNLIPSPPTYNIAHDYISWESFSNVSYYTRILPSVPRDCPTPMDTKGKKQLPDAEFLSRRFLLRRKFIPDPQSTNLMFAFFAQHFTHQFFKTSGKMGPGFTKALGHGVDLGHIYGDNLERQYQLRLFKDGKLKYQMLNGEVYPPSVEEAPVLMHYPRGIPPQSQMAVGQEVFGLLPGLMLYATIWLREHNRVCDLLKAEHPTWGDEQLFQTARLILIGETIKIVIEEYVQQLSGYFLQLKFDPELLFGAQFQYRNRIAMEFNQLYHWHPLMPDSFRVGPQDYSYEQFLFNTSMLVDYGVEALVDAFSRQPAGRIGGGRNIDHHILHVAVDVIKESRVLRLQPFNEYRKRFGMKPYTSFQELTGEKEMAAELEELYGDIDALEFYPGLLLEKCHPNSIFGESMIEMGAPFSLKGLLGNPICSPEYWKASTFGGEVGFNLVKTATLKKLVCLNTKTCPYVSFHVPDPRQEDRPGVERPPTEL
Put plainly: COX Fluorescent Inhibitor Screening Assay, COX-1. It counts as biochemical. As to conditions: read-out: IC50 for inhibiting COX-1 enzyme. Here is the method:
(§1) To study the drug efficacies of NSAID containing hydrogelators, here we used ‘COX Fluorescent Inhibitor Screening Assay Kit’ (700100; Cayman Chemical) to do in vitro inhibition assays for Npx and Npx containing hydrogelors 1, 2, 3, 4, 5, and 6. Each compound was tested by COX-1 (ovine) enzyme and COX-2 (human recombinant) enzyme separately in 96 well black assay plates. By utilizing the peroxidase component of COXs, we monitored the reaction between PGG2 and ADHP (10-acetyl-3,7-dihydroxyphenoxazine), which produced highly fluorescent compound resorufin. This resorufin can be easily analyzed by multimode detector with an excitation wavelength of 530-540 nm and an emission wavelength of 585-595 nm. All the compounds are assayed in triplicate. After the combination of 10 μl of inhibitors, 10 μl of Heme solution, 10 μL of fluorometric substrate, 10 μl of enzyme (either COX-1 or COX-2), and 150 μl of assay buffer, we quickly add 10 μl of arachidonic acid solution to initiate the reaction. Then we read the plate exactly after two minutes incubation at room temperature. In this experiment, we also measure the blank data without enzyme and inhibitors, and the control data without inhibitors. The IC50 values of these hydrogelators were read from their activity curves (FIG. 18), which were measured with 5 different concentrations of these hydrogelators (dissolved in DMSO).

Data set [3] addresses T2, COX-2 (human recombinant) enzyme (Homo sapiens, UniProt P35354).
T2 construct: purchased Cayman Chemical 700100
T2 sequence (P35354 18-604): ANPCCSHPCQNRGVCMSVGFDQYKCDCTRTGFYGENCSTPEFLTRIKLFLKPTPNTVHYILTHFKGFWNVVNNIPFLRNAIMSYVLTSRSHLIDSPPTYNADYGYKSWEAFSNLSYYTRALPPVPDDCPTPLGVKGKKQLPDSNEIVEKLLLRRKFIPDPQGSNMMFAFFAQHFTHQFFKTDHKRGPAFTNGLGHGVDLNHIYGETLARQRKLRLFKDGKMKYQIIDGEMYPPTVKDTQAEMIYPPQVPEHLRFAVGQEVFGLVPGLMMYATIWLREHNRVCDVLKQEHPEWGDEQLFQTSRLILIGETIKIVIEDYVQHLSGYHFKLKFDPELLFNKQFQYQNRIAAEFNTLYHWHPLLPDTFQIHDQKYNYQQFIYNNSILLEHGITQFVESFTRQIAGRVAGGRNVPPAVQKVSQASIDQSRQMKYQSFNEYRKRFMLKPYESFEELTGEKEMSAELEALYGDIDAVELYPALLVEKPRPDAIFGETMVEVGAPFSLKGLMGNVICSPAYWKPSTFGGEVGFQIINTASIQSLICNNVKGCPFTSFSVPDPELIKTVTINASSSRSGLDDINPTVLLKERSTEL
Put plainly: COX Fluorescent Inhibitor Screening Assay, COX-2. It counts as biochemical. Here is the method: as §1

A further data set concerns 4T1-luciferase cells. Put plainly: in vivo evaluation of antitumor activity. Set-up: species or system Balb/c mice. The conditions noted are these: intravenous 4×10 mg/kg every other day from day 0. Here is the method:
After inoculating female Balb/c mice with 2×10^5 of 4T1-luciferase cells in the mammary fat pad, we allow tumors grow until their sizes reach about 500 mm^3, and randomly divide them into different treatment groups: (1) intravenous injections of PBS vehicle control; (2) intravenous injection of 4×10 mg/kg Taxol® every other day from day 0 for indicated times; (3) a single intratumoral injection of 10 mg/kg Taxol containing hydrogels in 40 μL volume. With the treatments of 16 (Taxol; paclitaxel), 20a, 20b, or PBS buffer (control) for 14 days, we monitor the relative tumor sizes (calculated by the formula: tumor volume=length×width×(Length+Width)/2) and relative weights of mice every two days. […] Therefore, we have to divide 40 mg/kg of 16 into four injections with each injection of 10 mg/kg. […] This promising result warrants further investigation of the D-peptidic hydrogels of Taxol on animal models.
Female Balb/c mice were incubated with 2×10^5 4 T1-luciferase cells in the mammary fat pad. Tumor growth was monitored every other day and the tumor volume was calculated by the formula: length×width×(Length+Width)/2. Once tumors size reached around 500 mm^3, we randomly divided mice into different treatment groups. […] Mice weight was monitored after receiving treatment and presented as relative weight (%).

Data set [4] deals with HeLa cells. As to the kind of experiment: cells. In kind it is cell-based. The conditions noted are these: Homo sapiens, HeLa; 72 hours at 37° C., MTT; read-out: IC50, HeLa cell viability. Here is the method:
We seeded […] (cells/well) of health HeLa cells into 96-well plate with 100 μL of MEM medium supplemented with 10% fetal bovine serum (FBS), 100 U/mL penicillin and 100 mg mL21 streptomycin. The incubation at 37° C. and 5% CO2 for 12 hours allowed HeLa cells to attach the bottom of 96-well plate. Then we replaced the medium by another 100 μL of growth medium that contained serial diluents of our compounds (0.5% DMSO) and then incubated the cells at 37° C. and 5% CO2 for additional 72 hours. During the measurement of proliferation for HeLa cells, which were assayed into three days, we added 10 μL of (3-(4,5-Dimethylthiazol-2-yl)-2,5-diphenyltetrazolium bromide (MTT, 0.5 mg/mL) into the assigned wells in their corresponding day every 24 hours, which was followed by adding 100 μL of 0.1% sodium dodecyl sulfate (SDS) 4 hours later. Then we collected the assay results after another 24 hours incubation. Since the mitochondrial reductase in living cells reduced MTT to purple fomazan, the absorbance at 595 nm of the whole solution was finally measured by DTX 880 Multimode Detector. With MEM medium as blank and untreated HeLa cells as control, we measure each concentration of these compounds in triplicate. The IC50 values of our hydrogelators were read from their activity curves (with the measurement of 8 different concentrations) in day 3.

Data set [5] is described as follows: toxicity and relative weight of treated mice. As to conditions: single injection of 40 mg/kg, formulated with Cremophor EL, 40 mg/kg. It counts as in vivo, Balb/c mice.

In the case of `COc1ccc2cc([C@H](C)C(=O)O)ccc2c1` [naproxen], on COX-2, the IC50 (as a rule, the concentration that gives 50% inhibition) was 2 to 28.4 µM.

Regarding “2-(Naphthalen-2-yl)acetyl-(D)-Phe-(D)-Phe-(D)-Lys-(D)-Tyr phosphate [11b]”, the “time at which dephosphorylation finishes” value in the data set with ALP is 48 h. For the same molecule, the “time to form hydrogel after addition of ALP” value in [1] was ≤ 24 h.

Consider “2-(Naphthalen-2-yl)acetyl-(D)-Phe-(D)-Phe-(D)-Lys(NBD)-(D)-Tyr phosphate [14b]”, for which, in the data set with HeLa cells [2] (with 25 μM CinnGEL 2Me (PTP1B inhibitor)), the “time until fluorescence emerges” value is 5 min. The “time until cells exhibit strong fluorescence” value in the data set with HeLa cells [2] (without PTP1B inhibitor) worked out at 2 min.

On to “2-(Naphthalen-2-yl)acetyl-(L)-Phe-(L)-Phe-(L)-Lys-(L)-Tyr phosphate [11a, reference compound]”, for which the “time at which dephosphorylation finishes” value with ALP came out at 48 h.

`COc1ccc2cc([C@H](C)C(=O)N[C@@H](Cc3ccccc3)C(=O)N[C@@H](Cc3ccccc3)C(=O)N[C@@H](CCCCN)C(=O)N[C@@H](Cc3ccc(O)cc3)C(=O)O)ccc2c1` [L-4, Naproxen-L-Phe-L-Phe-L-Lys-L-Tyr, reference compound] (Naproxen-FFKY-OH): the IC50 at COX-1 (ovine) enzyme was 115 µM. Besides, the “selectivity S for COX-2 (IC50 of COX-1/IC50 of COX-2)” value in data set [3] is recorded as “about 3”.

On to `CC(=O)O[C@H]1C(=O)[C@@]2(C)[C@H]([C@H](OC(=O)c3ccccc3)[C@]3(O)C[C@H](OC(=O)[C@H](O)[C@@H](NC(=O)c4ccccc4)c4ccccc4)C(C)=C1C3(C)C)[C@]1(OC(C)=O)CO[C@@H]1C[C@@H]2O` [compound 16, paclitaxel], for which the “relative tumor size vs control” value in the data set on 4T1-luciferase cells is recorded as “smaller than those of the control group after day 8”. Further, in the data set with HeLa cells [4], the IC50 came out at 45.8 nM. In addition, the lethality entry in data set [5] (listed as Taxol) is on record as “Mice died immediately”; in data set [5] (listed as Taxol®) it was “may cause the death of mouse immediately”.
